Where a SMILES comes first, the peptide text is derived from it. Bridges are numbered along the chain shown (N, C = ends). [ ]: non-standard residue; d: D form. Tle = CC(C)(C)[C@H](N)C(=O)O; Aib = CC(C)(N)C(=O)O A value given as a limit tells only on which side of the number the result lay.

As a reminder, the IC50 is the point on the concentration scale where inhibition reaches its midpoint.

In data set [1] the test system is Tissue Factor Pathway Inhibitor (TFPI). Briefly: IC50 ELISA | Mean IC50 [nM]. From the text: Table printed on a drawing sheet, FIGURE 78V
Head of the field: IC50 ELISA | Mean IC50 [nM]
(In an ELISA, binding on a coated surface is turned into a signal by an enzyme label.)

Data set [2] has as its system TFPI. The experiment in a line: Progress Curves of Inhibition of FXa | % Inhibit (2.5µM). The protocol:
Head of the field: Progress Curves of Inhibition of FXa | % Inhibit (2.5µM)
“*” denotes negative controls.

The subject of data set [3] is TFPI. Briefly: IC50 ELISA | Mean IC50 [nM].
In data set [4] the test system is Tissue Factor Pathway Inhibitor (TFPI). The experiment in a line: IC50 ELISA | Mean IC50 [nM]. This is another data set of the same source.
Data set [5] has the same test system. The experiment in a line: IC50 ELISA | IC50 [nM]. From the text:
Table printed on a drawing sheet, FIGURE 78G
Head of the field: IC50 ELISA | IC50 [nM]

A short description of another data set: FIGURE 78L. From the text: Table printed on a drawing sheet, FIGURE 78L
A further data set in a line: FIGURE 78K. From the text:
Table printed on a drawing sheet, FIGURE 78K

The test system of data set [6] is TFPI. The experiment in a line: Extrinsic Tenase Inhibition assay | % Inhibition @ 2.5μM.
Another data set relates to FIX knock-out mice. The experiment in a line: Tail-tip bleed model in FIX knock-out mice. The data set is classed as in vivo, mouse. On the procedure:
JBT2329 also was tested in a FIX knock-out tail-tip bleed mouse model, which is a clinically-relevant model for hemophilia B human patients. The methodology was substantially similar to that described above with respect to the FVIII knock-out model. Instead of ADVATE, a recombinant FIX (rFIX) served as a reference. Median total blood loss in buffer-treated animals was 935 mg. Median total blood loss in animals treated with a murine anti-TFPI antibody (maTFPI) was 774 mg. Median total blood loss was reduced further when the animals received combined treatment of maTFPI and rFIX.

Molecule `CC(=O)N[C@@H](Cc1ccccc1)C(=O)N[C@@H](CCC(N)=O)C(=O)N[C@@H](CO)C(=O)N[C@@H](CCCCN)C(=O)N1CCC[C@@H]1C(=O)N[C@@H](CC(N)=O)C(=O)N[C@H](C(=O)N[C@@H](Cc1c[nH]cn1)C(=O)N[C@H](C(=O)N[C@@H](CC(=O)O)C(=O)N[C@@H]1CSSC[C@@H](C(=O)N[C@@H](CCCNC(=N)N)C(=O)N[C@@H](CC(C)C)C(=O)NC(C)(C)C(=O)N[C@@H](C)C(=O)N[C@@H](CCCCN)C(=O)N[C@@H](CC(C)C)C(N)=O)NC(=O)[C@H](Cc2ccccc2)NC(=O)[C@H](Cc2ccc(O)cc2)NC1=O)C(C)(C)C)C(C)C` [JBT00002495, Ac-FQSKpNVH-Tle-D[cYFC]RL-Aib-AKL-NH2] (Ac-FQSK[dP]NVH[Tle]D[dC]YFCRL[Aib]AKL-NH2; disulfide 11-14) showed an IC50 in data set [1] of 3.36 nM.

Consider “Ac- KKLTGDWTYFWSKVIWGPGVIERQMPVSTFH KK-NH2 (SEQ ID NO: 3065) (Ac-KKLTGDWTYFWSKVIWGPGVIERQMPVSTFHKK-NH2) [JBT0177*]”, for which the “Progress Curves of Inhibition of FXa | % Inhibit ([…])” value in the data set with TFPI [2] was determined as 4%.

Take “Ac- KKVGSVTRWSMYGPIFIKFTWTLEQPVGWDH KK-NH2 (SEQ ID NO: 3056) (Ac-KKVGSVTRWSMYGPIFIKFTWTLEQPVGWDHKK-NH2) [JBT0176*]”: in the data set on TFPI [2], the “Progress Curves of Inhibition of FXa | % Inhibit ([…])” value was determined as 0%.

“Ac-FQSK-Nmg-NVFVTGYFERL-Aib-AKL-NH2 [JBT00001585]”: in the data set on TFPI [3], the IC50 was found to be 15.1 nM.

In turn, “Ac-FQSKGNVFVDGYFERL-Aib-AKLC(PEG)-NH2 [JBT00001855]” gave an IC50 in the data set on TFPI [3] of 121 nM.

Consider “Ac-FQSKp-C(Acm)-VH-Tle-D[cY-Bta--Hcy-]RL-Aib-AKL- NH2 [JBT00002501]”, for which, in [4], half-maximal inhibition (IC50) required 6.31 nM.

As for “Ac-FQSKp-C(NEM)-VH-Tle-DaY-Bta-ERL-Aib-AKL-NH2 [JBT00002502]”, it took 3.89 nM to reach half-maximal inhibition in [4] (IC50). Compared with the last molecule, the IC50 is about 1.6-fold lower.

On to “Ac-FQSKp-Nmn-VHVDGYFERL-Aib-AKL-NH2 [JBT00002287]”, for which the IC50 in data set [5] is above 500 nM.

Consider “Ac-FQSKpN-Chg-H-Chg-DGYFERL-Aib-AKL-NH2 [JBT00002295]”, for which the IC50 in [5] was above 5000 nM.

In the case of “Ac-FQSKpN-Phg-H-Phg-DGYFERL-Aib-AKL-NH2 [JBT00002298]”, the IC50 in [5] is above 5000 nM.

For “Ac-FQSKpNVH-Tle-D-hcy-YF-Hcy-RL-Aib-AKL-NH2 [JBT00002497]”, the IC50 in data set [1] was found to be 7.16 nM.

In the case of “Ac-FQSKpNVH-Tle-D-hcy-YFCRL-Aib-AKL-NH2 [JBT00002498]”, in data set [1], the IC50 was 7.59 nM.

In turn, “Ac-FQSKpNVH-Tle-DcY-Bta--Hcy-RL-Aib-AKL-NH2 [JBT00002500]” returned an IC50 in data set [4] of 5.26 nM. This counts as single-digit nanomolar.

For the molecule “Ac-FQSKpNVHVDGYFERL-Aib-AKLC(ME-400MA)-NH2 [JBT00002329]”, the “24 h Human Plasma Stability | Mean Remaining [%]” value was 59.30% in “FIGURE 78M”, 62.90% in “FIGURE 78L” and 69.50% in “FIGURE 78K”. Further, the “24 h Mouse Plasma Stability | Mean Remaining [%]” value in “FIGURE 78M” amounted to 56.70%; in “FIGURE 78L” it was 81.80%; in the data set “FIGURE 78K” it was 69.50%.

As for “Ac-SRYKWF[CGMADMKGTMSC]VWVKF-NH2 (SEQ ID NO: 1079) (Ac-SRYKWFCGMADMKGTMSCVWVKF-NH2; disulfide 7-18; SMILES CSCC[C@@H]1NC(=O)CNC(=O)[C@@H](NC(=O)[C@H](Cc2ccccc2)NC(=O)[C@H](Cc2c[nH]c3ccccc23)NC(=O)[C@H](CCCCN)NC(=O)[C@H](Cc2ccc(O)cc2)NC(=O)[C@H](CCCNC(=N)N)NC(=O)[C@H](CO)NC(C)=O)CSSC[C@@H](C(=O)N[C@H](C(=O)N[C@@H](Cc2c[nH]c3ccccc23)C(=O)N[C@H](C(=O)N[C@@H](CCCCN)C(=O)N[C@@H](Cc2ccccc2)C(N)=O)C(C)C)C(C)C)NC(=O)[C@H](CO)NC(=O)[C@H](CCSC)NC(=O)[C@H]([C@@H](C)O)NC(=O)CNC(=O)[C@H](CCCCN)NC(=O)[C@H](CCSC)NC(=O)[C@H](CC(=O)O)NC(=O)[C@H](C)NC1=O) [JBT0446]”, the “Extrinsic Tenase Inhibition assay | % Inhibition @ […]” value in the data set on TFPI [6] amounted to 46%.

rFIX: a recombinant FIX: the results for the “Median total blood loss” value in the data set with FIX knock-out mice (10 IU/kg rFIX alone) and in the data set on FIX knock-out mice (25 IU/kg rFIX alone) were 888 mg and 774 mg, respectively.

Source of the values: US10800816B2 (Baxalta GmbH, priority 2012, dated 2020).
